Results from patent US20120329985A1, “Optimal hydolysis conditions of soy protein to produce peptides with lipolysis-stimulating activity and their sequencing and use thereof” (TUNGHAI UNIVERSITY, priority 2011, published 2012).
Like-named read-outs stand apart in the source and are kept apart here. Where a SMILES comes first, the peptide text is derived from it.

What was measured:
[1] = system: gastrointestinal enzymes (pepsin, pancreatin); assay: Resistance of the synthetical peptides in the mimic gastrointestinal environment; conditions: pepsin 25:1, pH 2.0, 37° C., 4 hours; pancreatin 25:1, 4 hours
Protocol: (§2) Then adding pepsin with substrate-enzyme ratio at 25:1 and incubating for 4 hours is performed to mimic the environment in stomach. Following the incubation, the solution is neutralized by addition of 2N NaOH and heating some aliquot for 15 minutes to terminate the pepsin activity for freeze storage. The remainder is further incubated with pancreatin with substrate-enzyme ratio at 25:1 for 4 hours to mimic the intestinal environment. After termination of the enzyme activity by heating in boiled water and followed by cooling, the sample is freeze stored for the further analysis.
(§3) After temperature returned, the each frozen sample processed in the mimic gastrointestinal environment is centrifuged at 10,000×g for 40 minutes. After centrifugation, the supernatant is collected and filtrated through 0.22 μm filter, and added into the culture medium for 3T3-L1 adipocytes. On day 11 post-differentiation, the supernatant or cell extract are collected as the methods described in example 3 and example 7 for measuring the glycerol release and triglyceride residue in the adipocytes. The glycerol release and triglyceride residue in the adipocytes are calculated from the absorption excited by 500 and 520 nm wavelength.

[2] = system: gastrointestinal enzymes (pepsin, pancreatin); conditions: pH 2
Protocol: as §2, §3

3T3-L1 adipocytes [3] = assay: Measurement of the triglyceride residue in 3T3-L1 adipocytes; format: cell-based; conditions: 4 ppm fractions and synthetical peptides (FIG. 23)
Protocol: (§1) The precursor cells of 3T3-L1 cell are purchased from Food Industry Research and Development Institute in Taiwan. The purchased precursor cells of 3T3-L1 adipocytes are cultured in 24-wells plate with 1×10^4 cells/well. The cells are cultured with DMEM (Dulbecco's Modified Eagle Medium) containing 10% FBS (Fetal bovine serum) at 37° C. in the incubator with 5% CO2, and refresh cultured medium every two days. While the 3T3-L1 cells are filled within the culture dish, the culture medium is changed to the differentiation medium (DM) for promoting adipocytes differentiation, which is defined as day 0 post-differentiation. The differentiation medium contains 1.74 μM insulin, […] dexamethasone (DEX) and 0.5 mM isobutyl-methylxanthine (IBMX). From day 2 post-differentiation, the culture medium is exchanged to DMEM with 1.74 μM insulin and refreshed every two days until day 8 post-differentiation. On day 8 post-differentiation, the precursor cells would differentiate into mature 3T3-L1 adipocytes.
On day 11, the cultured cells are washed with PBS and lysed by adding lysis buffer. The supernatant of cell lysis is collected after centrifugation at 13000 rpm for 10 minutes. 10 μL supernatant of cell lysis is mixed with 1 ml triglyceride detecting kit (TR213) and incubated at room-temperature for 5 minutes. After the incubation, the triglyceride residue in the adipocytes could be calculated according to absorption excited by 500 nm wavelength and shown in FIG. 6. In FIG. 6, control experiment is the cells without treatment of ISP hydrolysate or any fractions.

3T3-L1 adipocytes [4] = assay: Measurement of the glycerol released from 3T3-L1 adipocytes; format: cell-based; conditions: 4 ppm fractions and synthetical peptides (FIG. 22); control basal level 312.3
Protocol: as §1, with “adipocytes. […]” for “adipocytes.”
30 μL of the cultured medium is collected and mixed with detecting kit (GY105) to measure the glycerol release. After reaction at room-temperature for 5 minutes, the absorption excited by 520 nm wavelength is measured by spectrophotometer to calculate the glycerol released from adipocytes.

## CC(C)C[C@H](NC(=O)[C@H](CC(C)C)NC(=O)[C@@H](N)CC(C)C)C(=O)O [Leu-Leu-Leu] (H-Leu-Leu-Leu-OH; N-terminus and C-terminus assumed)
[1]
  Bioactivity for lipolysis after gastrointestinal enzymes: resistant

## CC(C)[C@H](N)C(=O)N[C@@H](Cc1c[nH]cn1)C(=O)N[C@H](C(=O)N[C@H](C(=O)O)C(C)C)C(C)C [Val-His-Val-Val] (H-VHVV-OH; N-terminus and C-terminus assumed)
[2]
  Bioactivity for lipolysis after gastrointestinal enzymes: resistant

## Ile-Ile-Ile
3T3-L1 adipocytes [3]
  Effect on triglyceride residue versus control: significantly reduce

## Ile-Leu-Leu
3T3-L1 adipocytes [4]
  Glycerol release: 540.81 nmol/mg protein
3T3-L1 adipocytes [3]
  Effect on triglyceride residue versus control: significantly reduce
3T3-L1 adipocytes [3]; control 3.2
  Triglyceride residue: 1.41 μmol/mg protein
